{
  "source": "patent US20190078052A1",
  "about": "“ENGINEERED ADHESIVE SUBSTRATES FOR HIGH-THROUGHPUT CELL ISOLATION AND SEPARATION” (ARIZONA BOARD OF REGENTS ON BEHALF OF ARIZONA STATE …, priority 2016, published 2019)",
  "key": {"T24 3D-DTMs [1]": {"tested_on": "T24 3D-DTMs", "test": "Cell cycle analysis of T24 3D-DTMs by propidium iodide flow cytometry", "assay_type": "cell-based", "procedure": "Following five days of incubation on AM3, 3DTMs of T24 cells with NIH3T3 murine fibroblast cells were harvested for cell cycle analysis. Four or five individual 3DTMs of T24 cells alone or UMUC3 cells alone were harvested on the 7th day after seeding on Amikagels, collected in an eppendorf tube. 50 μL of 5 mg/ml collagenase was added to 3DTMs prepared using fibroblast helper cells for 30 minutes at 37° C. in order to facilitate their disassembly by gentle pipetting. Single cell 3DTMs were disassembled using manual pipetting.\nDisassembled 3DTM cells were then centrifuged at 200 r.c.f. in order to collect the cell pellet. The pellet was resuspended in a solution of 1% v/v 1× Triton-X, 5% (v/v) fetal bovine serum (FBS), 50 μg/mL propidium iodide, and 0.006-0.01 units/mL ribonuclease A. After incubation for 30 minutes on ice, cells were analyzed for their cell cycle profiles using flow cytometry; the propidium iodide (PI) signal was detected using an excitation at 535 nm and emission at 617 nm.\nVoltages of the FL2-A, SSC and FSC channels were adjusted in order to obtain best representative peaks for alignment of 2n (diploidy−G0/G1) peak to 200 intensity units during flow cytometry. FL2A (FL2-Area) provides the information regarding the pulse area of the emitted fluorescence signal (total cell fluorescence) whereas SSC and FSC provide the information regarding the […] light from the sample. FSC is a measure of diffracted light from the sample proportional to cell surface area or size and SSC is proportional to cell granularity or internal complexity."}, "T24 3D-DTMs [2]": {"tested_on": "T24 3D-DTMs", "test": "Viability of T24 3D-DTMs after docetaxel treatment", "assay_type": "cell-based", "settings": "following treatment"}, "phospho-AKT": {"tested_on": "phospho-AKT", "settings": "cited from earlier work"}, "phospho-FAK": {"tested_on": "phospho-FAK", "settings": "cited from earlier work"}, "cdc42": {"target": "cdc42 (Homo sapiens, UniProt P60953)", "sequence (P60953 whole entry, species assumed)": "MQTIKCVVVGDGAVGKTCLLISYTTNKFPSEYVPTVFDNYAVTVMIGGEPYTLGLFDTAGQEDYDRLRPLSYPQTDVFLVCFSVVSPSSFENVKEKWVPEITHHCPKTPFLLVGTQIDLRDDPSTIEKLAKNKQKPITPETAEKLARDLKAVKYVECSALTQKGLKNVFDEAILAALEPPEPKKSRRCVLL", "settings": "other cancer cell lines; cited from earlier work"}, "T24 3D-DTMs [3]": {"tested_on": "T24 3D-DTMs", "test": "Transfer of dormant T24 3D-DTMs from AM3 to AM1 Amikagel: cell escape, filopodia, microcolony formation", "assay_type": "cell-based", "settings": "for formation of micrometastasis-like nodules / microcolonies: 100 μM pre-treated, 15 days after transfer to AM1", "procedure": "1 ml of amikagel AM1, AM2 and AM3 pre-gel solutions were filtered through a 0.20 μm filter and 40 μL of the filtrate was added to each well of a 96 well plate. The plates were sealed with paraffin tape (Parafilm, Menasha, Wis.) and incubated in an oven maintained at 40° C. for 7.5 hours. After gelation, the surfaces of Amikagels were washed with 150 μL of Nanopure® water for 12 hours, in order to remove traces of unreacted monomers.\nAll 3DTM (3D tumor microenvironments) experiments were set up by liquid overlay culture (2) of cells on top of Amikagel surface in a total volume of […] media/well; either 100,000 cancer cells alone (single culture) or 50,000 stromal cells followed by 50,000 cancer cells (co-culture) were incubated, unless indicated otherwise in specific cases. After 48 hours of incubation, 50% of the media in the wells was replaced with fresh media i.e. DMEM/RPMI+10% (v/v) FBS+1% (v/v) Pen-Strep at regular intervals of 48 hours. Care was taken to withdraw and add the media slowly so as to not perturb 3DTM formation. Fresh media was added every 48 hours following cell plating. For 3DTM generation on 24 well plates, 400 μL of pre-gel volume was used instead of 40 μl. Different co-culture 3DTM systems are represented as fibroblast/stromal cells-epithelial cells (e.g. NIH3T3-T24, WPMY-1-T24) to accurately indicate the sequence of their addition. In most cases, 3DTMs were formed 5-7 days following culture on Amikagels.\nT24 3DTMs were first formed on AM3, and transferred to AM1s on the seventh day following initial cell seeding, in order to investigate the role of chemo-mechanical properties of Amikagels on 3DTM fate, and migration of metastatic cells out of the 3DTM spheroid. Upon transfer, cells from 3DTMs were monitored for cell spreading and motility on the gel for an additional 7 days. After 7 days, cell cycle analysis and N-cadherin analysis was carried out on the all 3DTMs. Long-term experiments were also carried out where 3D-DTMs were continuously monitored for 15 days after their transfer from AM3 gel to AM1 gel."}},
  "note": "Entries after “also recorded” stand apart in the source; their conditions may differ.",
  "data": [
    {"smiles": "CC(=O)O[C@@]12CO[C@@H]1C[C@H](O)[C@@]1(C)C(=O)[C@H](O)C3=C(C)[C@@H](OC(=O)[C@H](O)[C@@H](NC(=O)OC(C)(C)C)c4ccccc4)C[C@@](O)([C@@H](OC(=O)c4ccccc4)[C@H]21)C3(C)C", "note": "[Docetaxel, docetaxel]", "values": [
      {"measurement": "cells in the G2/M phase, treated vs untreated 3D-DTM", "setting": "T24 3D-DTMs [1]; 96 hours on AM3", "result": "No significant differences"},
      {"measurement": "cells in the sub-G0/G1 phase of the cell cycle, treated mother 3D-DTM", "setting": "T24 3D-DTMs [1]; 96 hours on AM3", "result": "modest increase"},
      {"measurement": "cell cycle profile of treated T24 3D-DTMs", "setting": "T24 3D-DTMs [1]; following treatment", "result": "dormant cell cycle profile"},
      {"measurement": "viability of treated T24 3D-DTMs", "setting": "T24 3D-DTMs [2]", "result": "remained viable"},
      {"measurement": "reduction of phospho-AKT expression compared to untreated T24 cells", "setting": "phospho-AKT", "result": "~41", "unit": "%"},
      {"measurement": "reduction of phospho-FAK expression compared to untreated T24 cells", "setting": "phospho-FAK", "result": "~34", "unit": "%"},
      {"measurement": "inhibition of cdc42", "setting": "cdc42", "result": "effectively inhibit"},
      {"measurement": "cellular escape from the mother 3D-DTM", "setting": "T24 3D-DTMs [3]; 12.5 μM-100 μM", "result": "significantly reduced"},
      {"measurement": "formation of micrometastasis-like nodules / microcolonies", "setting": "T24 3D-DTMs [3]", "result": "significantly reduced cell escape and microcolony formation"},
      {"measurement": "formation of micrometastasis-like nodules / microcolonies", "setting": "T24 3D-DTMs [3]; listed as docetaxel", "result": "drastically reduced"},
      {"measurement": "cells escaping the mother spheroid", "setting": "T24 3D-DTMs [3]; 100 μM pre-treatment on AM3, 48 hours after transfer to AM1", "result": "significantly lesser number of cells escaped"},
      {"measurement": "filopodia formation on cells shed on AM1", "setting": "T24 3D-DTMs [3]; after treatment of T24 3D-DTMs", "result": "did not show filopodia formation; also recorded: not observed"}
    ]}
  ]
}
